Laboratory results published in patent US10160744B2, “Quinoline compounds suitable for treating disorders that respond to the modulation of the serotonin 5-HT6 receptor” (Abbvie Deutschland GmbH & Co. KG, priority 2016, dated 2018).

Columns and labels:
h-5-HT6 receptor = biological target: T1, h-5-HT6 receptor (Homo sapiens, UniProt P50406); assay: 5-HT6 receptor binding assay (displacement of [3H]-LSD); details: cloned human 5-HT6 receptor, HEK293 membranes, 1 nM [3H]-LSD
T1 construct: expressed in transfected cells
Description: Displacement of radioligands binding to the following cloned human receptors
1. Preparation of Membranes by Ultrasonic Treatment and Differential Centrifugation
Cells from stable clonal cell lines expressing the corresponding receptor (5-HT6, α1-adrenergic, dopamine D2 or histamine H1 receptors) were washed with PBS (w/o Ca^++, Mg^++) and harvested in PBS with 0.02% EDTA. The cells were collected by centrifugation at 500 g for 10 min. at 4° C., washed with PBS and centrifuged (500 g, 10 min. 4° C.). The pellets were stored at −80° C. until use. For membrane preparation, the thawed cell pellet was resuspended in ice-cold sucrose buffer (0.25 M sucrose, 10 mM Hepes (pH 7.4), 1 mM Phenylmethylsulfonyl fluoride (PMSF) in DMSO, 5 μg/ml Pepstatin-A, 3 mM EDTA, 0.025% Bacitracin) and homogenized with a Branson Sonifier W-250 (Settings: Timer 4; Output Control 3; Duty Cycle constant; 2 to 3 cycles). Cell disruption was checked with the aid of a microscope. Remaining unbroken cells were pelleted at 1.000 g for 10 min. at 4° C. The sucrose buffer supernatant was then centrifuged at 60.000 g for 1 h at 4° C. (Beckman Ultrazentrifuge XL 80). The pellet was resuspended in 30 ml ice-cold Tris buffer (20 mM TRIS (pH 7.4), 5 μg/ml Pepstatin A, 0.1 mM PMSF, 3 mM EDTA) by pipetting through a 10 ml serological pipet and centrifuged for 1 h at 4° C. at 60.000 g. A final resuspension was performed in a small volume of ice-cold Tris buffer (see above) by pressing through a serological pipet followed by ultrasonic treatment with a Branson Sonifier W-250 (Settings: Timer 1; Output Control 3; Duty Cycle constant; 1 cycle). Protein concentration was determined (BCA-Kit; Pierce) and aliquots stored at −80° C. or in liquid nitrogen for long-term storage.
2. Receptor Binding Experiments
All receptor binding experiments were carried out in the corresponding assay buffer in a total volume of 200 μl in the presence of various concentrations of test compound (10^−5 M to 10^−9 M, tenfold serial dilution, duplicate determinations). The assays were terminated by filtration on polyethylenimine (PEI 0.1% or 0.3%) presoaked Packard Unifilter Plates (GF/C or GF/B) with a Tomtec MachIII U 96 well-plate harvester. After the plates had been dried for 2 h at 55° C. in a drying chamber scintillation cocktail (BetaPlate Scint; PerkinElmer) was added. Radioactivity was measured in a Microbeta Trilux two hours after the addition of the scintillation mixture. Data derived from liquid scintillation counting were analysed by iterative non-linear regression analysis with the use of the Statistical Analysis System (SAS): a program similar to “LIGAND” as described by Munson and Rodbard (Analytical Biochemistry 107, 220-239 (1980).
a) 5-HT6 Receptor Binding Assay
HEK293 cells stably expressing the h-5-HT6 receptor (NCBI Reference Sequence XM 001435) were cultured in RPMI1640 medium supplemented with 25 mM HEPES, 10% fetal calf serum and 1-2 mM glutamine. The membrane preparation was performed as described in section 1. […] Non-specific binding was defined with 1 μM methiothepin. The binding reaction was carried out for 3.5 h at room temperature. During the incubation, the plates were shaken on a plate shaker at 100 rpm and terminated by filtration on Packard Unifilter GF/C (0.1% PEI) plates, followed by 2 wash cycles with ice-cold 50 mM Tris-HCl, 5 mM CaCl2.
Data derived from liquid scintillation counting were analyzed by iterative non-linear regression analysis with the use of the Statistical Analysis System (SAS): a program similar to “LIGAND” as described by Munson and Rodbard (Anal. Biochem. 1980, 107, 220-239). Fitting was performed according to formulae described by Feldman (Anal. Biochem. 1972, 48, 317-338). IC50, nH and Ki values were expressed as geometrical mean.

[1] = Metabolic stability in human liver microsomes (microsomal clearance); type: in vitro ADME; details: pH 7.4; human liver microsomes 0.25 mg protein/mL, 0.5 μM compound, NADPH, 37° C.; read-out: mClint
Description: Samples of the tested compounds (0.5 μM) were preincubated together with human liver microsomes (0.25 mg of microsomal protein/mL) in 0.05 M potassium phosphate buffer of pH 7.4 in microtiter plates at 37° C. for 5 minutes. The reaction was started by adding NADPH (1.0 mM). After 0, 5, 10, 15, 20 and 30 minutes, an aliquot was removed, the reaction was cooled and stopped by adding twice the amount of quench solution consisting of acetonitrile/methanol 1:1, and containing 0.2 μM carbutamide as internal standard. The samples were frozen until analyzed. The remaining concentration of undegraded test substance was determined by liquid chromatography-tandem mass spectrometry (LC-MS/MS). The half-life (t1/2) was determined from the gradient of the ratio of the signal of (test substance/internal standard)/unit time plot, allowing the calculation of the half-life of the test substance, assuming first order kinetics, from the decrease in the concentration of the compound with time. The microsomal clearance (mClint) was calculated as follows: mClint=((ln(2)/t 1/2)/Microsomal Protein Concentration (mg/ml))*1000, leading to the unit of μL/min/mg.

T1 sequence (P50406 whole entry): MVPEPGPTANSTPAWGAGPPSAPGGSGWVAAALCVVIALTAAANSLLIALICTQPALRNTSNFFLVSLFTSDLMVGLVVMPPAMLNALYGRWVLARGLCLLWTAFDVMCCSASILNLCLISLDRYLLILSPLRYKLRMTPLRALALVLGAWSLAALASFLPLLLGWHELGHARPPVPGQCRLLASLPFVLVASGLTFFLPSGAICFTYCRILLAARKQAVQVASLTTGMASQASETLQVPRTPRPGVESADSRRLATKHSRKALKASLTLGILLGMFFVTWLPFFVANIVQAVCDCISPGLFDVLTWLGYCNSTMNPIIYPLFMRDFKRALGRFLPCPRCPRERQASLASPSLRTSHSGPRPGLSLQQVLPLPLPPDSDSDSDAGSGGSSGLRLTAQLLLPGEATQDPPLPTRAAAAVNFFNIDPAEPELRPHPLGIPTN

Row | SMILES | Ki (h-5-HT6 receptor) [nM] | microsomal CLint at 0.5 μM [1] [µL/min/mg]
1 | O=C(O)C1CCCN(c2cccc3cc(S(=O)(=O)c4cccc(C(F)(F)F)c4)cnc23)C1 (centres unmarked) [Example 6, 1-[3-(3-Trifluoromethyl-benzenesulfonyl)-quinolin-8-yl]-piperidine-3-carboxylic Acid] | 10 to 100 | < 30
2 | O=C(O)[C@@H]1CCN(c2cccc3cc(S(=O)(=O)c4cccc(C(F)(F)F)c4)cnc23)C1 [Example 12, (3R)-1-[3-[3-(Trifluoromethyl)phenyl]sulfonyl-8-quinolyl]pyrrolidine-3-carboxylic Acid] | 10 to 100 | < 30
3 | O=S(=O)(c1cccc(N2CCC(O)CC2)c1)c1cnc2c(N3CCC(O)CC3)cccc2c1 [Example 16, 1-[3-[[8-(4-Hydroxy-1-piperidyl)-3-quinolyl]sulfonyl]phenyl]piperidin-4-ol] | 10 to 100 | 30 to 60
4 | O=S(=O)(c1cccc(C(F)(F)F)c1)c1cnc2c(N3CCC(O)CC3)cccc2c1 [Example 1, 1-[3-(3-Trifluoromethyl-benzenesulfonyl)-quinolin-8-yl]-piperidin-4-ol] | < 10 | 30 to 60
5 | COc1cccc(S(=O)(=O)c2cnc3c(N4CCC(C(=O)O)CC4)cccc3c2)c1 [Example 15, 1-[3-(3-Methoxyphenyl)sulfonyl-8-quinolyl]piperidine-4-carboxylic Acid] | 100 to 500 | < 30
6 | O=S(=O)(c1cccc(F)c1)c1cnc2c(N3CCC[C@@H](O)C3)cccc2c1 [Example 20, (3R)-1-[3-(3-Fluorophenyl)sulfonyl-8-quinolyl]piperidin-3-ol] | < 10 | 30 to 60
7 | O=S(=O)(c1ccccc1)c1cnc2c(N3CCC(O)CC3)cccc2c1 [Example 18, 1-[3-(Benzenesulfonyl)-8-quinolyl]piperidin-4-ol] | < 10 | < 30
8 | O=S(=O)(c1cccc(C(F)(F)F)c1)c1cnc2c(N3CC[C@@H](O)C3)cccc2c1 [Example 19, (3R)-1-[3-[3-(Trifluoromethyl)phenyl]sulfonyl-8-quinolyl]pyrrolidin-3-ol] | 10 to 100 | 30 to 60
9 | COc1cccc(S(=O)(=O)c2cnc3c(N4CCC(O)CC4)cccc3c2)c1 [Example 13, 1-[3-(3-Methoxyphenyl)sulfonyl-8-quinolyl]piperidin-4-ol] | < 10 | 60 to 120

Second part, the compound after the results:

Row | Ki (h-5-HT6 receptor) [nM] | microsomal CLint at 0.5 μM [1] [µL/min/mg] | SMILES
10 | 10 to 100 | < 30 | O=C(O)C1CCN(c2cccc3cc(S(=O)(=O)c4cccc(OC(F)F)c4)cnc23)CC1 [Example 31, 1-[3-[3-(Difluoromethoxy)phenyl]sulfonyl-8-quinolyl]piperidine-4-carboxylic Acid]
11 | < 10 | 30 to 60 | O=S(=O)(c1cccc(F)c1)c1cnc2c(N3CC[C@@H](O)C3)cccc2c1 [Example 33, (3R)-1-[3-(3-Fluorophenyl)sulfonyl-8-quinolyl]pyrrolidin-3-ol]
12 | 10 to 100 | < 30 | O=C(O)C1CCN(c2cccc3cc(S(=O)(=O)c4ccccc4)cnc23)CC1 [Example 37, 1-[3-(Benzenesulfonyl)-8-quinolyl]piperidine-4-carboxylic Acid]
13 | < 10 | < 30 | O=S(=O)(c1ccccc1)c1cnc2c(N3C[C@@H](O)[C@H](O)C3)cccc2c1 [Example 45, (3R,4R)-1-[3-(Benzenesulfonyl)-8-quinolyl]pyrrolidine-3,4-diol]
14 | 10 to 100 | 60 to 120 | COc1ccccc1S(=O)(=O)c1cnc2c(N3CCC(O)CC3)cccc2c1 [Example 21, 1-[3-(2-Methoxyphenyl)sulfonyl-8-quinolyl]piperidin-4-ol]
15 | 10 to 100 | < 30 | O=C(O)C1CN(c2cccc3cc(S(=O)(=O)c4cccc(C(F)(F)F)c4)cnc23)C1 [Example 44, 1-[3-[3-(Trifluoromethyl)phenyl]sulfonyl-8-quinolyl]azetidine-3-carboxylic Acid]
16 | 10 to 100 | 30 to 60 | Cc1ccc(O)c(S(=O)(=O)c2cnc3c(N4CCC(O)CC4)cccc3c2)c1 [Example 28, 1-[3-(2-Hydroxy-5-methyl-phenyl)sulfonyl-8-quinolyl]piperidin-4-ol]
